Results as given in patent US10710962B2, “Zwitterionic reagents” (Siemens Healthcare Diagnostics Inc., priority 2010, dated 2020).

Target: T1, BSA-NSP-DMAE (Bos taurus, UniProt P02769)
T1 construct: NSP-DMAE acridinium ester (chemical label attached through an amine-reactive NHS ester, about 1.4 per molecule)
Assay: Zwitterion label incorporation into acridinium ester labeled BSA, measured by MALDI-TOF mass spectroscopy
Design: species or system bovine
Method: The zwitterion-containing compounds of the present invention may also be useful for lowering the non-specific binding of hydrophobic and ‘sticky’ proteins. In one experiment, the chemical competency of certain exemplary amine-reactive zwitterion-containing compounds shown in FIG. 1 were evaluated by treating an acridinium ester (e.g., 2′,6′-Dimethyl-4′-(N-succinimidyloxycarbonyl)phenyl 10-Methyl-9-acridinecarboxylate Methylsulfate (NSP-DMAE) or other suitable acridinium esters described by Law et al. in U.S. Pat. No. 5,656,426, which is incorporated herein by reference) labeled bovine serum albumin (BSA) or bovine gamma globulin (BGG) with 10 and 20 equivalents of the zwitterion-containing compound followed by measurement of the zwitterion-containing compound incorporation by mass spectroscopy. The detailed experimental protocol is described in Example 15.
A solution of BSA (4 mg, 60 nmoles) in 1 mL of 0.1 M sodium bicarbonate was treated with 5 equivalents of 2′,6′-Dimethyl-4′-(N-succinimidyloxycarboxnyl)phenyl 10-(3′-Sulfopropyl)-acridinium-9-carboxylate (NSP-DMAE-NHS) added as a solution in DMF (72 μL of a 2 mg/mL solution in DMF). The reaction was stirred at room temperature for 4 hours. The reaction was then transferred to a 4 mL amicon filter (MW 30,000 cutoff) and diluted with 3 mL de-ionized water. The filter was centrifuged at 4000G for 8 minutes to reduce the volume to about 0.25 mL. The final conjugate was diluted to 0.8 mL with de-ionized water to give a 5 mg/mL solution. Acridinium ester label incorporation, measured by MALDI-TOF mass spectroscopy using sinnapinic acid as matrix indicated the incorporation of 1.4 labels.
Further labeling of the acridinium ester-labeled BSA conjugate with the zwitterion labels 1d, 2c, 3c and 4c was carried out as follows. The conjugate (0.5 mg, 7.5 nmoles, 100 μL) was diluted with 100 μL of sodium carbonate, pH 9. To this conjugate, in four separate reactions, was added 10 equivalents of the four zwitterion labels 1d, 2c, 3c and 4c dissolved in DMSO corresponding to 12.8 μL of a 2.5 mg/mL solution of 1d; 16.5 μL of a 2 mg/mL solution of 2c; 16.5 μL of a 2 mg/mL solution of 3c and 14 μL of a 2.5 mg/mL solution of 4c. The reactions were stirred at room temperature for 4 hours and were then processed as described above.

T1 sequence (P02769 25-607): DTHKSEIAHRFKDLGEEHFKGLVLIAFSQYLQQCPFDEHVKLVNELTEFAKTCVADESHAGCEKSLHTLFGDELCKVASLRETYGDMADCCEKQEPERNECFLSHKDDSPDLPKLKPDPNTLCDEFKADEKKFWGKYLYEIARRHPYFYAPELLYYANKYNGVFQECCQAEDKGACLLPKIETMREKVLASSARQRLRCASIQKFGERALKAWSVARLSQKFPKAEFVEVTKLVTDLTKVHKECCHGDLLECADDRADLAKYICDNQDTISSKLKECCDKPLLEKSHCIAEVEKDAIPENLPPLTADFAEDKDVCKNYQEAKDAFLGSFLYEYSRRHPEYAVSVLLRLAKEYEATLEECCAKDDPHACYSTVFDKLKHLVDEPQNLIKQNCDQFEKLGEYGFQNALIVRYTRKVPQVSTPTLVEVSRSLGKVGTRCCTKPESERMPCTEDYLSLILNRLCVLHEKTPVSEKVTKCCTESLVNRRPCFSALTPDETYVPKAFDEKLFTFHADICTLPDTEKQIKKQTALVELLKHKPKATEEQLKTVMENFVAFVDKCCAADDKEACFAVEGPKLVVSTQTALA

| # of Zwitterion-Containing Compounds Incorporated by Conjugate (input 10 equivalents) | # of Zwitterion-Containing Compounds Incorporated by Conjugate (input 20 equivalents) | Structure (SMILES) |
| --- | --- | --- |
| 5 | – | C[N+](C)(CCCC(=O)Oc1c(F)c(F)c(F)c(F)c1F)CCS(=O)(=O)[O-] [Compound 1d] |
| 3.3 | – | C[N+](C)(CCCCS(=O)(=O)[O-])CCCC(=O)Oc1c(F)c(F)c(F)c(F)c1F [Compound 3c] |
| 5 | 8 | C[N+](C)(CCCC(=O)Oc1c(F)c(F)c(F)c(F)c1F)CCCS(=O)(=O)[O-] [Compound 2c] |
| 3.4 | 7.1 | CCCOP(=O)([O-])OCC[N+](C)(C)CCCC(=O)Oc1c(F)c(F)c(F)c(F)c1F [Compound 4c] |
